From patent US11029303B2, “PAH antibodies and uses thereof” (The Administrators of the Tulane Educational Fund, priority 2015, dated 2021)

Experiments:
YCM3 yeast cells = assay: Toxicity to yeast cells in the yeast bioassay (inhibition of cell accumulation); assay type: cell-based, Saccharomyces cerevisiae; details: up to 100 μM
Description: Yeast bioassay. The YCM3 yeast cells were diluted into the galactose medium to a final A600 nm of 0.04, plated into 96-well plates at 200 μl/well, and treated with various concentrations of PAHs for 18 hr at 30° C. During this time, the human AhR and aryl hydrocarbon receptor nuclear translocator (ARNT) were expressed in the presence of galactose and activated by PAH ligands in the cell to form the aryl hydrocarbon receptor complex (AHRC). After 18 hrs of incubation, yeast cells were suspended by pipetting, a 25 μl aliquot from each well was transferred into another 96-well assay plate and mixed with 225 μl substrate solution (60 mM Na2HPO4, 40 mM NaH2PO4, 1 mM MgCl2, 10 mM KCl, 0.2% sarkosyl, 1 mM dithiothreitol, and 0.4 mg/ml ortho-nitrophenyl-β-galactoside; pH, 7.0). […] Cell densities were determined from the first 96-well plate by measuring A600 nm and the color intensities of LacZ reactions determined by A405 nm from the corresponding wells of the second plate.
During the induction process, YCM3 yeast cells were incubated with varying concentrations of phenanthrene and its methylated derivatives and their signaling activities were measured via a colorimetric substrate. […] Differences in cell growth at the end of the 18 hr incubation period were normalized by measuring each culture's absorbance at 600 nm.

[1] = target: T1, human aryl hydrocarbon receptor (AhR) (Homo sapiens, UniProt P35869); assay: Yeast bioassay of human AhR activation (YCM3 yeast, LacZ reporter); assay type: cell-based; details: for EC50: concentration inducing 50% of the activity of 100 μM phenanthrene, 18 hr, read-out: rEC50
T1 construct: host or cells: Saccharomyces cerevisiae strain YCM3 (derived from W303a), AhR and ARNT integrated on chromosome III under a galactose promoter
From the text: Cell culture. An engineered Saccharomyces cerevisiae yeast strain, YCM3, was used for the present study. YCM3 was derived from the W303a yeast strain and is made available to investigators through the American Type Culture Collection (ATCC, strain MYA-3637). Human Ah receptor and ARNT genes were inserted onto chromosome III under the control of galactose promoter. YCM3 was transformed with a LacZ reporter plasmid that is expressed upon interaction with ligand activated AHRC (FIG. 24). This modification process was described in a previous study (Fox et al., 2008). The yeast cells were maintained in a glucose-containing medium (0.67% yeast nitrogen base without amino acids, 2% glucose, supplemented with 0.01% uracil, adenine, leucine, and histidine), and the bioassay was performed in a galactose-containing medium (2% galactose substituted for glucose in the medium described herein). Medium components were purchased from Sigma Aldrich Chemical Company.
Yeast bioassay. The YCM3 yeast cells were diluted into the galactose medium to a final A600 nm of 0.04, plated into 96-well plates at 200 μl/well, and treated with various concentrations of PAHs for 18 hr at 30° C. During this time, the human AhR and aryl hydrocarbon receptor nuclear translocator (ARNT) were expressed in the presence of galactose and activated by PAH ligands in the cell to form the aryl hydrocarbon receptor complex (AHRC). After 18 hrs of incubation, yeast cells were suspended by pipetting, a 25 μl aliquot from each well was transferred into another 96-well assay plate and mixed with 225 μl substrate solution (60 mM Na2HPO4, 40 mM NaH2PO4, 1 mM MgCl2, 10 mM KCl, 0.2% sarkosyl, 1 mM dithiothreitol, and 0.4 mg/ml ortho-nitrophenyl-β-galactoside; pH, 7.0). The assay plate was incubated for ˜5 min at 37° C. and then 100 μl of a 1M Na2CO3 solution was added to stop the reaction and enhance the yellow color. Cell densities were determined from the first 96-well plate by measuring A600 nm and the color intensities of LacZ reactions determined by A405 nm from the corresponding wells of the second plate.
A450 sample is the measurement of a ligand-treated well at 405 nm absorbance and A450 empty is the measurement of a well that contains only medium and no cells. A600 sample is the measurement of yeast cell density of a ligand-treated well at 600 nm absorbance and A600 empty is the measurement of a well that contains only medium and no cells. Cell volume is the amount of cell suspension added per well in ml (for example 0.025 ml) and reaction time is the time period of the colorimetric reaction (for example 5 min). The lacZ units were calculated as a percentage relative to the positive control (β-naphthaflavone signal set as 100%), and the dose response curves were fitted using SlideWrite program (version 7.01, Advanced Graphics Software, Inc.) using the 2 parameter curve: y=m+a0*x/(a1+x) (2) where m=LacZDMSO value from the assay plate, a0=maximum effect and a1=half maximum effective concentrations (EC50).
Relative EC50 and EC25 (rEC50 and rEC25) values were further introduced to compare potencies of various methylated phenanthrenes. rEC50 and rEC25 were defined as the concentrations of the total PAH at which the AhR was activated to 50% or 25% of the activation observed in the 100 μM phenanthrene control, respectively. The 100 μM concentration was chosen because it was the maximum that can be achieved in the assay. The rEC50 and rEC25 and the errors associated with these values were calculated from the fitted curves. Specifically, the LacZ value corresponding to 50% or 25% of this value was calculated according to the following equations: y(EC50)=[lacZ(100 uM Phen)+LacZ(1% DMSO)]/2 (3) y(EC25)=[lacZ(100 uM Phen)+3*LacZ(1% DMSO)]/4 (4)
These calculated y values and the a0 and a1 values from the curve fits were then used to solve for x in equation (2) above. These x values represent the mean of rEC50 or rEC25 from the fitted curve. […]

[2] = crystal; cited from earlier work
marine fish = details: larvae of marine fish; cited from earlier work

T1 sequence (P35869 11-848): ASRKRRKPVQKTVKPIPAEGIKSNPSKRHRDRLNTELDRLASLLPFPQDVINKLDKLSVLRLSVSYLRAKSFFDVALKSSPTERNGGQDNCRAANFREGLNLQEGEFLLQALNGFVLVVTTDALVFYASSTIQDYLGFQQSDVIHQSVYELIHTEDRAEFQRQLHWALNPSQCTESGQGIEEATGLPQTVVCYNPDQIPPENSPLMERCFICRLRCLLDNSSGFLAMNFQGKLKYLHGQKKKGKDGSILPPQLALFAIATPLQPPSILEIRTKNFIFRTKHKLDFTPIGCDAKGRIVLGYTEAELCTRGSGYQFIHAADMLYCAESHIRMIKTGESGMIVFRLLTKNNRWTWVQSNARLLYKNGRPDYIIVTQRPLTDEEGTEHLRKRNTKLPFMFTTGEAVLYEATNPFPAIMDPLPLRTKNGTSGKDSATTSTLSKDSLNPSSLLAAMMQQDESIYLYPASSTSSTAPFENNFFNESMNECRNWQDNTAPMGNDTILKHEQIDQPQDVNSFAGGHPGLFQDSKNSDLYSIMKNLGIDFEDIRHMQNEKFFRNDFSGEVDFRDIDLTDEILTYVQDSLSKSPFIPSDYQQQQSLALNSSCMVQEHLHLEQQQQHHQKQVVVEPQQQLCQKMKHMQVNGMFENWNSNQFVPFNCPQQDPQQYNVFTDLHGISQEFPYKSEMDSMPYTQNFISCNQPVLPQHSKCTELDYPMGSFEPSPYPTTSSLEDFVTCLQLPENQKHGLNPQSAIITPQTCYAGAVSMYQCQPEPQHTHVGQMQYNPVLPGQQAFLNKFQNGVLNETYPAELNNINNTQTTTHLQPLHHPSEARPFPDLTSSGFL
T1 sequence (P27540 whole entry partner): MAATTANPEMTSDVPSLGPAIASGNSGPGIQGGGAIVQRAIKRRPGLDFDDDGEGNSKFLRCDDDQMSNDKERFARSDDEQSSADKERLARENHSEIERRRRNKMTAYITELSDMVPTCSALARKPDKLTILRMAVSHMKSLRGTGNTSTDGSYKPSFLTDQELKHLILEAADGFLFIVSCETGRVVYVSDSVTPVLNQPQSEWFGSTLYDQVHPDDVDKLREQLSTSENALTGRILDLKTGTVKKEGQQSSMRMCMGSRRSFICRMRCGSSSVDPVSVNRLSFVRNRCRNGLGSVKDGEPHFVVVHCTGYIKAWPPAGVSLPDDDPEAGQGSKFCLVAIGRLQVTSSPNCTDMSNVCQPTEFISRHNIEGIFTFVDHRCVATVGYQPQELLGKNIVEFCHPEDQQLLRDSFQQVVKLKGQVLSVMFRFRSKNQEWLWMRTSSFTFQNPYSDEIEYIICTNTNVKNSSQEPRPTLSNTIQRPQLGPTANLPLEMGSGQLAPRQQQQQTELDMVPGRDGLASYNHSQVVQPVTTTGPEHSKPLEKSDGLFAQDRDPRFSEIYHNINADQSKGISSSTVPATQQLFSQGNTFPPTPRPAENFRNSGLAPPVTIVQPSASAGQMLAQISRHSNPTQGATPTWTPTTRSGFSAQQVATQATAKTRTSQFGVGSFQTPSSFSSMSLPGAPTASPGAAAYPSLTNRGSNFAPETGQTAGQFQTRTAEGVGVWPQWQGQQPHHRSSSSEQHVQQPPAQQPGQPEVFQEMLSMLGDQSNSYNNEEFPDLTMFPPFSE

Cc1cc2ccccc2c2ccccc12 [Clone 9-MP, 9-methylphenanthrene]
toxicity to the yeast cells (YCM3 yeast cells): less toxic to the yeast cells

Cc1ccc2c(ccc3ccccc32)c1 [Clone 2-MP, 2-methylphenanthrene]
EC50 [1]: 4.6 µM

Cc1cccc2c1ccc1ccccc12 [Clone 1-MP, 1-methylphenanthrene]
concentration at which maximal response was reached [1]: ~40 µM | EC50 [1]: 4 µM | Emax at 18 h ([1]; human, 1 μM BNF set as 100%, read-out: maximal response): 109%

c1ccc2c(c1)ccc1ccccc12 [phenanthrene]
toxicity to the yeast cells (YCM3 yeast cells): less toxic to the yeast cells | solubility lower than biphenyl [2]: 1000 fold

Cc1cccc2c1ccc1cc(C(C)C)ccc12 [retene, 7-isopropyl-1-methylphenanthrene]
toxicity in vivo (marine fish): greater toxicity than unsubstituted phenanthrene

Cc1ccc2ccc3ccccc3c2c1 [Clone 3-MP, 3-methylphenanthrene]
EC50 [1]: 5.8 µM

Cc1ccc2ccc3ccc(C)cc3c2c1 [3,6-DMP, 3,6-dimethylphenanthrene]
rEC50 comparison (ANOVA post-test) [1]: significantly more potent that 4-MP | rEC25 comparison (ANOVA post-test) ([1]; 25% of the activity of 100 μM phenanthrene): significantly more potent than the 3-, 4- and 9-MPs | response achieved in the assay ([1]; dose-response curve up to 100 μM): up to 50%
